Measurements published in patent US6511978B1, “Pyrrole derivatives useful for farnesyl transferase inhibitors and their preparations” (LG Life Sciences, Ltd., priority 1999, dated 2003).

What was measured:
Ras farnesyl transferase [1] = biological target: T1, Ras farnesyl transferase (Homo sapiens, UniProt P49354+P49356); assay: Ras farnesyl transferase enzyme inhibition, H-Ras substrate; format: biochemical; conditions: H-Ras substrate protein; recombinant farnesyl transferase; 30 minutes at 37° C.
T1 construct: made in house
From the text: (§1) In the present experiment, the improved Pompliano's method (see: Pompliano et al., Biochemistry, 31, 3800, 1992) was applied. Specifically, Ras farnesyl transferase produced by genetic recombination techniques was used, and fused protein of H-Ras(H-Ras-CVLS) substituted with polybasic lysine domain at C-terminus of K-Ras (see: Korean Patent Appln. No. 97-14409) was used as a substrate after it had been purified according to the known method(see, Chung et al., Biochimica et Biophysica Acta, 1129, 278, 1992).
(§2) The enzyme reaction was performed in 50 μl of 50 mM Sodium HEPES buffer solution containing 25 mM of potassium chloride, 25 mM of magnesium chloride, 10 mM of DTT and 50 μM of zinc chloride. 1.5 μM of Ras substrate protein, 0.15 μM of tritium-farnesylpyrophosphate and 4.5 nM of farnesyl transferase were used. More specifically, in the initial step, farnesyl transferase was added to the above buffer solution, reaction was maintained for 30 minutes at 37° C. and then the reaction was stopped by adding 1 ml of ethanol solution containing 1M HCl. The formed precipitates were adsorbed to GF/B filter using Hopper harvestor(Hopper #FH 225V) for filter-binding, washed with ethanol, and then radioactivity of the dried filter was measured using LKB β counter. Enzyme titer was measured in the unsaturated state of substrate where the concentration of Ras substrate protein and farnesyl transferase have quantitative relationship. The compound according to the present invention dissolved in dimethyl sulfoxide(DMSO) was added to the reaction solution in an amount of less than 5% of the total reaction solution, and then the enzyme inhibitory activity thereof was measured. The enzyme inhibitory activity was represented by percentage of the amount of farnesyl incorporated into the Ras substrate protein in the presence of the test compound to that in the absence of the test compound. IC50 of the test compound was defined as the concentration at which 50% of the enzyme activity was inhibited. To evaluate the selective enzyme inhibitory activity of the compound according to the present invention, inhibitory activity on geranylgeranyl transferase was measured. Geranylgeranyl transferase was purified from bovine brain according to the modified Schaber's method(Schaber et al., J. Biol. Chem. 265, 14701, 1990), and substantially the same experimental procedure as that for farnesyl transferase was performed on geranylgeranyl pyrophosphate and Ras-CVIL substrate protein.

Ras farnesyl transferase [2] = biological target: T1, Ras farnesyl transferase; assay: Ras farnesyl transferase enzyme inhibition, K-Ras substrate (H-Ras fused with polybasic lysine domain of K-Ras); format: biochemical; conditions: K-Ras substrate (fused protein of H-Ras with polybasic lysine domain of K-Ras); recombinant farnesyl transferase
From the text: as §1, §2

Ras farnesyl transferase [3] = biological target: T2, Ras farnesyl transferase (Rattus norvegicus, UniProt Q02293+Q04631); assay: In vivo (intracellular) Ras farnesylation inhibition in Rat2 cell line expressing C-Harvey-Ras; format: cell-based; conditions: Rat2 cells expressing C-Harvey-Ras; concentration inhibiting 50% of farnesyl binding; read-out: H-Ras CIC50
T2 construct: endogenous in cells; host or cells: Rat2 fibroblasts transformed with C-Harvey-Ras or with the H-Ras/K-Ras polybasic-domain fusion
Description: (§3) In the present experiment, Rat2 cell line which expresses C-Harvey-Ras protein having transforming activity and Rat2 cell line(Korean patent application No. 97-14409) which is transformed with fused protein of H-Ras substituted with polybasic lysine domain at C-terminus of K-Ras were used. The experiment was performed by the modified Declue's method(Declue. J. E. et al., Cancer Research, 51, 712, 1991) as follows.
(§4) 3×10^5 cells of transformed Rat2 fibroblast cell line were sprayed on 60 mm cell cultivation dish and cultivated for 48 hours in a cell incubator at 37° C. and after 50% or more of density was reached, it was treated with the test compounds. The compound according to the present invention dissolved in dimethylsulfoxide(DMSO) was used. 1% concentration of dimethylsulfoxide was used in both control and test groups. After 4 hours from the treatment with the compound, methionine labeled with 150 μCi of radioactive isotope [^35S] per 1 ml of medium was added and after cultivating for 20 hours, the cells were washed with physiological saline water. The cells were lysed using 1 ml of cold cell lysis buffer solution(50 mM of Sodium HEPES buffer solution containing 5 mM of magnesium chloride, 1 mM of DTT, 1% NP 40, 1 mM of EDTA, 1 mM of PMSF, 2 μM of leupeptin, 2 μM of pepstatin A and 2 μM of antipain) and the supernatant wherein the cells were lysed was obtained by high-velocity centrifugation of 12,000 g×5 minutes. The amount of radioisotope in the supernatant was measured and standardized to obtain a quantitative result in immunoprecipitation reaction and then, Y13-259, a monoclonal antiboby specifically binding to Ras protein(see: Furth, M. E. et al., J. Virol, 43, 294, 1982) was added and reacted for 15 hours at 4° C. Protein A(combined with goat anti-murine immunoglobulin antibody)-agarose suspension was added to the solution and reacted for 1 hour at 4° C. and then, to remove the unspecific binding product, immunoprecipitates were washed with a buffer solution (50 mM Tris chloride buffer solution containing 50 mM of sodium chloride, 0.5% of sodium dioxycholate, 0.5% of NP 40 and 0.1% of SDS). The precipitates were added to a buffer solution for electrophoresis and boiled and then, electrophoresis was performed using 13.5% of SDS polyacrylamide gel. After electrophoresis, the gel was fixed and dried. Then, the gel was exposed to X-ray film, developed and printed. From the result of the experiment, intensities of band of protein combined with or without farnesyl of Ras protein was measured, and the concentration of the test compound inhibiting 50% of farnesyl binding was defined as CIC50, an in vivo Ras farnesyl transferase inhibitory activity. IC50 means the data from Experimental 1 and CIC50 means the data from Experimental 2.

Ras farnesyl transferase [4] = biological target: T2, Ras farnesyl transferase; assay: In vivo (intracellular) Ras farnesylation inhibition in Rat2 cell line transformed with H-Ras fused with polybasic lysine domain of K-Ras; format: cell-based; conditions: Rat2 cells transformed with H-Ras/K-Ras polybasic domain fused protein; concentration inhibiting 50% of farnesyl binding; read-out: K-Ras CIC50
Description: as §3, §4

Row | IC50 (Ras farnesyl transferase [1]) | IC50 (Ras farnesyl transferase [2]) | IC50 (Ras farnesyl transferase [3]) | IC50 (Ras farnesyl transferase [4]) | Compound
1 | < 10 nM | < 10 nM | < 25 nM | 10000 to 50000 nM | COCCN(C)C(=O)c1cn(Cc2cncn2CCCOCc2ccccc2)cc1-c1cccc2ccccc12 [Example 1, 1-[1-(3-benzyloxypropyl)-1H-imidazol-5-yl]methyl-3-[N-(2-methoxyethyl)-N-methyl]carbamoyl-4-(naphthalen-1-yl)-1H-pyrrole]
2 | < 10 nM | < 10 nM | < 25 nM | 10000 to 50000 nM | O=C(c1cn(Cc2cncn2CCCOCc2ccccc2)cc1-c1cccc2ccccc12)N1CCOCC1 [Example 2, 1-[1-(3-benzyloxypropyl)-1H-imidazol-5-yl]methyl-3-(morpholin-4-yl)carbonyl-4-(naphthalen-1-yl)-1H-pyrrole]
3 | < 10 nM | < 10 nM | < 25 nM | 10000 to 50000 nM | CN1CCN(C(=O)c2cn(Cc3cncn3CCCOCc3ccccc3)cc2-c2cccc3ccccc23)CC1 [Example 3, 1-[1-(3-benzyloxypropyl)-1H-imidazol-5-yl]methyl-3-(4-methylpiperazin-1-yl)carbonyl-4-(naphthalen-1-yl)-1H-pyrrole]
4 | < 10 nM | < 10 nM | < 25 nM | 10000 to 100000 nM | COCCN(C)C(=O)c1cn(Cc2cncn2CCCOc2ccccc2)cc1-c1cccc2ccccc12 [Example 4, 3-[N-(2-methoxyethyl)-N-methyl]carbamoyl-4-(naphthalen-1-yl)-1-[1-(3-phenoxypropyl)-1H-imidazol-5-yl]methyl-1H-pyrrole]
5 | < 10 nM | < 10 nM | < 25 nM | 10000 to 50000 nM | COCCN(C)C(=O)c1cn(Cc2cncn2CCCSc2ccccc2)cc1-c1cccc2ccccc12 [Example 5, 3-[N-(2-methoxyethyl)-N-methyl]carbamoyl-4-(naphthalen-1-yl)-1-[1-(3-thiophenoxypropyl)-1H-imidazol-5-yl]methyl-1H-pyrrole]
6 | < 10 nM | < 10 nM | < 25 nM | 10000 to 50000 nM | O=C(c1cn(Cc2cncn2CCCOc2ccccc2)cc1-c1cccc2ccccc12)N1CCOCC1 [Example 6, 3-(morpholin-4-yl)carbonyl-4-(naphthalen-1-yl)-1-[1-(3-phenoxypropyl)-1H-imidazol-5-yl]methyl-1H-pyrrole]
7 | < 10 nM | < 10 nM | < 25 nM | 10000 to 50000 nM | CN1CCN(C(=O)c2cn(Cc3cncn3CCCOc3ccccc3)cc2-c2cccc3ccccc23)CC1 [Example 7, 3-(4-methylpiperazin-1-yl)carbonyl-4-(naphthalen-1-yl)-1-[1-(3-phenoxypropyl)-1H-imidazol-5-yl]methyl-1H-pyrrole]
8 | < 10 nM | < 10 nM | > 25 nM | 10000 to 50000 nM | CCSCCCn1cncc1Cn1cc(C(=O)N(C)CCOC)c(-c2cccc3ccccc23)c1 [Example 8, 3-[N-(2-methoxyethyl)-N-methyl]carbamoyl-4-(naphthalen-1-yl)-1-[1-(3-thioethoxypropyl)-1H-imidazol-5-yl]methyl-1H-pyrrole]
9 | < 10 nM | < 10 nM | < 25 nM | 10000 to 50000 nM | COCCN(C)C(=O)c1cn(Cc2cncn2CCCN2CCOCC2)cc1-c1cccc2ccccc12 [Example 9, 3-[N-(2-methoxyethyl)-N-methyl]carbamoyl-1-{1-[3-(morpholin-4-yl)propyl]-1H-imidazol-5-yl}methyl-4-(naphthalen-1-yl)-1H-pyrrole]
10 | < 10 nM | < 100 nM | > 25 nM | 10000 to 50000 nM | COCCN(C)C(=O)c1cn(Cc2cncn2CCc2cccs2)cc1-c1cccc2ccccc12 [Example 10, 3-[N-(2-methoxyethyl)-N-methyl]carbamoyl-4-(naphthalen-1-yl)-1-{1-[2-(thiophen-2-yl)ethyl]-1H-imidazol-5-yl}methyl-1H-pyrrole]
11 | < 10 nM | < 100 nM | > 25 nM | 10000 to 50000 nM | CN1CCN(C(=O)c2cn(Cc3cncn3CCc3cccs3)cc2-c2cccc3ccccc23)CC1 [Example 11, 3-(4-methylpiperazin-1-yl)carbonyl-4-(naphthalen-1-yl)-1-{1-[2-(thiophen-2-yl)ethyl]-1H-imidazol-5-yl}methyl-1H-pyrrole]
12 | < 10 nM | < 100 nM | > 25 nM | 10000 to 50000 nM | CN1CCN(C(=O)c2cn(Cc3cncn3Cc3ccco3)cc2-c2cccc3ccccc23)CC1 [Example 12, 1-[1-(furan-2-yl)methyl-1H-imidazol-5-yl]methyl-3-(4-methylpiperazin-1-yl)carbonyl-4-(naphthalen-1-yl)-1H-pyrrole]
13 | < 10 nM | < 10 nM | < 25 nM | 10000 to 50000 nM | COCCN(C)C(=O)c1cn(Cc2cncn2C2CCN(Cc3ccccc3)CC2)cc1-c1cccc2ccccc12 [Example 13, 1-[1-(1-benzylpiperidin-4-yl)-1H-imidazol-5-yl]methyl-3-[N-(2-methoxyethyl)-N-methyl]carbamoyl-4-(naphthalen-1-yl)-1H-pyrrole]
14 | < 10 nM | < 10 nM | < 25 nM | 10000 to 50000 nM | O=C(c1cn(Cc2cncn2C2CCN(Cc3ccccc3)CC2)cc1-c1cccc2ccccc12)N1CCOCC1 [Example 14, 1-[1-(1-benzylpiperidin-4-yl)-1H-imidazol-5-yl]methyl-3-(morpholin-4-yl)carbonyl-4-(naphthalen-1-yl)-1H-pyrrole]
15 | < 6 nM | < 13 nM | > 25 nM | > 10000 nM | Cc1ncc(Cn2cc(C(=O)N3CCN(C)CC3)c(-c3cccc4ccccc34)c2)n1Cc1ccc2c(c1)OCO2 [Example 15, 1-[2-methyl-1-(3,4-methylenedioxybenzyl)-1H-imidazol-5-ylmethyl]-3-(4-methylpiperazin-1-yl)carbonyl-4-(naphthalen-1-yl)-1H-pyrrole]

Row | Compound | IC50 (Ras farnesyl transferase [1]) | IC50 (Ras farnesyl transferase [2]) | IC50 (Ras farnesyl transferase [3]) | IC50 (Ras farnesyl transferase [4])
16 | 1-[1-(3-benzyloxypropyl)-2-methyl-1H-imidazol-5-ylmethyl]-3-[N-(2-methoxyethyl)-N-methyl]carbamoyl-4-(naphthalen-1-yl)-1H-pyrrole [Example 34] | < 4 nM | < 4.7 nM | > 12.5 nM | > 10000 nM
